Drawing on US20230218661A1, “ISOTONIC OR HYPERTONIC SALT-BASED COMPOSITIONS, TREATMENTS, DEVICES, AND ARTICLES FOR DELIVERY OF SAME TO LARYNX” (SENSORY CLOUD, INC., priority 2022, published 2023), this text covers subject-reported relief for one compound.

In the experiment the test system is post viral cough. The experiment can be described thus: Informal single-subject study of post viral cough exacerbation. The following applies: self-administration, subjective.

Consider `COc1ccc2c3c1O[C@H]1[C@@H](O)C=C[C@H]4[C@@H](C2)N(C)CC[C@@]341` [codeine], for which the subject-reported relief result is reported as “dramatic relief”.
